Measurements as given in patent publication US11716994B2, “Combinations of Yersinia entomophaga and pesticides or other substances” (priority 2017, dated 2023).
Like-named read-outs stand apart in the source and are kept apart here.

Legend:
cabbage looper [1] = tested on: cabbage looper
cabbage looper [2] = details: for LT50 Chem. / % Mort. Chem.: Cabbage Looper
Experimental: To produce cell free filtrates, cultures of Yersinia entomophaga grown in LB medium were centrifuged at 11,448 (g) for 10 minutes. The supernatant was decanted from the centrifuged pellet and filtered through a 0.22 μm filter. Assays were performed to determine concentrations of Yen-TC (toxin complex) using ELISA, and chitinase by measuring chitinase activity on specific substrates. […] This was done to estimate relative potency of the cell free filtrates. Insects were first pre-screened with a range of dilutions of cell free filtrates to select a concentration that provided moderate activity. […] Based on these initial screens, undiluted cell free filtrate was used for cabbage looper, fall armyworm, black cutworm, and Colorado potato beetle. […] In each of the Examples below, this is expressed as 1%.
Cabbage leaf disks were dipped in either acetone (controls and Y. entomophaga alone treatments) or novaluron (Sigma 32419) at 1.0 mg/L in acetone. These were set to dry for 1 hr. […] After the cabbage disks had dried for 1 hr, a single 3rd instar cabbage looper was added to each individual cabbage disk. A total of 20 insects were evaluate for each treatment. Insects were observed daily and scored as live or dead.

fall armyworm = assay: Leaf disk mortality assay, Y. entomophaga cells with chemical insecticides
diamondback moth [3] = assay: as above; details: for % Mort. Chem. / LT50 Chem.: diamondback moth; for mortality at 0.29 µg/mL / mortality at 150 µg/mL: Plutella xylostella, foliar
Yersinia entomophaga = assay: CFU counts after exposure of Yersinia entomophaga to insecticides; assay type: cell-based; details: 1 hour contact
Text: To test combinations of Yersinia entomophaga and pesticides for their ability to produce a pesticidal effect, or an effect on plant growth or yield, we first put various insecticides in contact with Yersinia to identify insecticides that had minimal toxicity to Yersinia entomophaga. The logic was that, if Yersinia entomophaga is to function well in combination with a chemical insecticide, the chemical insecticide would ideally have low or no effect on the ability of Yersinia entomophaga to survive, grow and/or to function.
To perform this study, we selected amounts of various insecticides based on the percent of the specific insecticide in the insecticide composition obtained from a manufacturer. We also considered the application rate of the particular insecticide, as recommended by the manufacturer. […] Generally, the 1× amount was considered possibly the lowest amount of insecticide that may be considered as an effective amount for use in the combinations disclosed herein. For each insecticide, we also used a higher amount of insecticide (generally a 5× or 10× amount).
The 1× and 5×/10× amounts of each insecticide were added to tubes along with 1 ml of ethyl acetate. The tubes were mixed until the insecticides dissolved. The tubes were left open in a fume hood overnight to allow the ethyl acetate to evaporate. The insecticide remained in the tubes, as a solid coat on the interior surface of the tubes.
A growing culture of Yersinia entomophaga, grown in LB medium, was diluted and 1 ml of the diluted culture was added to each tube containing the dried insecticide. The tubes were mixed and then left on the bench top for 1 hour. Then, 100 μl from each tube was plated onto LB plates in triplicate in CFU assays. Plates were incubated at 25° C. for 48 hours and colonies were counted.

diamondback moth [4] = assay: whole plant or invertebrate; details: for LT50 (95% confidence intervals): 2nd instar diamondback moth; for mortality at 0.29 µg/mL: Plutella xylostella, foliar, Abbott's corrected
Text: (§1) These were set to dry for 1 hr.
as §1
These were set to dry for 1 hr. Cabbage disks were then dipped in either 1% Luria broth (LB) media solution (controls and thiacloprid alone treatments) or in 1% cell free filtrate from a culture Y. entomophaga isolate O24G3R (Y. entomophaga alone or in combination with thiacloprid treatments).

Colorado potato beetle = assay: Tomato leaf disk mortality assay, Y. entomophaga cells with chemical insecticides; details: for mortality at 0.88 µg/mL: Leptinotarsa decemlineata, in Solanum lycopersicum, foliar
black cutworm = assay: Leaf disk mortality assay, Y. entomophaga cells with chemical insecticides; details: for % Mort. Chem. / LT50 Chem.: black cutworm
[5] = 3rd instar, emamectin benzoate 0.67 mg/L, isolate O23ZMJ 1×10^5 cfu/mL
[6] = 3rd instar, emamectin benzoate 0.002 mg/L, isolate O43NEW 1×10^3 cfu/mL
[7] = 48 h, read-out: % Mortality (2DAT)
[8] = 120 h, read-out: % Mortality (5DAT)
[9] = 144 h, read-out: % Mortality (6DAT)
[10] = 168 h, read-out: % Mortality (7DAT)
[11] = 3rd instar, deltamethrin 0.175 mg/L, isolate O43NEW 1×10^4 cfu/mL
[12] = 3rd instar, deltamethrin 1.75 mg/L, isolate O43NEW 1×10^4 cfu/mL

Emamectin benzoate
% Mort. Chem. (cabbage looper [1]; cabbage looper, Emamectin benzoate 0.02 mg/L, 7 DAT): 13%
% Mortality (7DAT) (cabbage looper [1]; in vivo): 13%
LT50 (95% confidence intervals) in days (cabbage looper [1]; in vivo): 7.61 (7.08-8.19) days
LT50 Chem. (cabbage looper [1]; in vivo): 7.61 days
% Mortality (5DAT) (cabbage looper [2]; 3rd instar cabbage looper, emamectin benzoate 0.02 mg/L, O43NEW undiluted filtrate, alone or combined, 5 DAT, Abbott's corrected): 5%
% Mortality (12DAT) (cabbage looper [2]; 3rd instar cabbage looper, emamectin benzoate 0.02 mg/L, O43NEW undiluted filtrate, alone or combined, 12 DAT, Abbott's corrected): 94%
LT50 Chem. (cabbage looper [2]; emamectin benzoate 0.02 mg/L): 7.22 days
% Mort. Chem. (cabbage looper [2]; emamectin benzoate 0.02 mg/L, 5 DAT): 94%
% Mortality (4DAT) (fall armyworm; [5]): 20%
LT50 (95% confidence intervals) in days (fall armyworm; [5]): 5.10 (4.65-5.59) days
LT75 (95% confidence intervals) in days (fall armyworm; 3rd instar, emamectin benzoate 2 mg/L, isolate O43NEW 1×10^6 cfu/mL): 6.54 (5.76-7.44) days
% Mort. Chem. (fall armyworm; fall armyworm, Emamectin benzoate 0.67 mg/L, 4 DAT): 20%
LT50 Chem. (fall armyworm; fall armyworm, Emamectin benzoate alone 0.67 mg/L): 5.10 days
LT50 Chem. (fall armyworm; fall armyworm, Emamectin benzoate alone 2 mg/L): 6.54 days
% Mortality (4DAT) (diamondback moth [3]; [6]): 5%
LT50 (95% confidence intervals) in days (diamondback moth [3]; [6]): 6.21 (5.38-7.14) days
% Mort. Chem. (diamondback moth [3]; Emamectin benzoate 0.002 mg/L, 4 DAT): 5%
LT50 Chem. (diamondback moth [3]; Emamectin benzoate alone 0.002 mg/L): 6.21 days
Average CFU (Yersinia entomophaga; 1.5 mg insecticide): 489 CFU
Average CFU (Yersinia entomophaga; 15 mg insecticide): 459 CFU
LT50 (95% confidence intervals) in days (diamondback moth [4]; 3rd instar diamondback moth, emamectin benzoate 0.002 mg/L, O43NEW filtrate 1%, alone or combined): 6.21 (5.38-7.14) days
LT50 Chem. (diamondback moth [4]; Diamondback moth, emamectin benzoate 0.002 mg/L): 6.21 days

CC1(C)[C@H](C(=O)O[C@H](C#N)c2cccc(Oc3ccccc3)c2)[C@@H]1C=C(Br)Br [Deltamethrin]
LT50 (95% confidence intervals) (Colorado potato beetle; 3rd instar larva, deltamethrin 0.88 mg/L, isolate O43NEW 1×10^7 cfu/mL): 11.6 days
% Mort. Chem. (Colorado potato beetle; Colorado potato beetle, Deltamethrin 0.88 mg/L, 5 DAT): 30%
LT50 Chem. (Colorado potato beetle; Colorado potato beetle, Deltamethrin alone 0.88 mg/L): 11.60 days
mortality at 0.88 µg/mL (Colorado potato beetle; [7]): 30%
mortality at 0.88 µg/mL (Colorado potato beetle; [8]): 30%
mortality at 0.88 µg/mL (Colorado potato beetle; [9]): 30%
mortality at 0.88 µg/mL (Colorado potato beetle; [10]): 30%
mortality at 0.88 µg/mL (Colorado potato beetle; 216 h, read-out: % Mortality (9DAT)): 30%
LT50 (95% confidence intervals) (diamondback moth [3]; 3rd instar, deltamethrin 0.29 mg/L, isolate O43NEW 1×10^3 cfu/mL): 11.58 days
mortality at 0.29 µg/mL (diamondback moth [3]; [7]): 0%
mortality at 0.29 µg/mL (diamondback moth [3]; 96 h, read-out: % Mortality (4DAT)): 16%
mortality at 0.29 µg/mL (diamondback moth [3]; [10]): 21%
mortality at 0.29 µg/mL (diamondback moth [3]; 240 h, read-out: % Mortality (10DAT)): 32%
mortality at 0.29 µg/mL (diamondback moth [3]; 336 h, read-out: % Mortality (14DAT)): 54%
mortality at 0.29 µg/mL (diamondback moth [3]; […], read-out: % Mortality (8DAT)): 24%
% Mort. Chem. (diamondback moth [3]; Deltamethrin 0.29 mg/L, 8 DAT): 24%
LT50 Chem. (diamondback moth [3]; Deltamethrin alone 0.29 mg/L): 11.58 days
% Mortality (3DAT) (black cutworm; [11]): 5%
% Mortality (6DAT) (black cutworm; [11]): 35%
% Mortality (9DAT) (black cutworm; [11]): 55%
% Mortality (10DAT) (black cutworm; [11]): 63%
LT50 (95% confidence intervals) (black cutworm; [11]): 7.67 days
% Mortality (3DAT) (black cutworm; [12]): 45%
LT50 (95% confidence intervals) (black cutworm; [12]): 3.37 days
% Mort. Chem. (black cutworm; Deltamethrin 0.175 mg/L, 6 DAT): 35%
% Mort. Chem. (black cutworm; Deltamethrin 1.75 mg/L, 3 DAT): 45%
LT50 Chem. (black cutworm; Deltamethrin alone 0.175 mg/L): 7.67 days
LT50 Chem. (black cutworm; Deltamethrin alone 1.75 mg/L): 3.37 days
LT50 (95% confidence intervals) (diamondback moth [4]; deltamethrin 0.29 mg/L, O43NEW filtrate 1%, alone or combined): 11.58 days
LT50 (95% confidence intervals) (diamondback moth [4]; deltamethrin […], O333A4 filtrate 1%, alone or combined): 12.78 days
LT50 Chem. (diamondback moth [4]; Diamondback moth, deltamethrin 0.29 mg/L): 11.58 days
% Mort. Chem. (diamondback moth [4]; Diamondback moth, deltamethrin 0.29 mg/L, 4 DAT): 16%
LT50 Chem. (diamondback moth [4]; Diamondback moth, deltamethrin […]): 12.78 days
mortality at 0.29 µg/mL (diamondback moth [4]; 48 h, read-out: % Mortality (2DAT), 2nd instar diamondback moth, deltamethrin 0.29 mg/L, O43NEW filtrate 1%, alone or combined, 2 DAT): 0%
mortality at 0.29 µg/mL (diamondback moth [4]; 72 h, read-out: % Mortality (3DAT), 2nd instar diamondback moth, deltamethrin 0.29 mg/L, O43NEW filtrate 1%, alone or combined, 3 DAT): 5%
mortality at 0.29 µg/mL (diamondback moth [4]; 96 h, read-out: % Mortality (4DAT), 2nd instar diamondback moth, deltamethrin 0.29 mg/L, O43NEW filtrate 1%, alone or combined, 4 DAT): 16%
mortality at 0.29 µg/mL (diamondback moth [4]; 168 h, read-out: % Mortality (7DAT), 2nd instar diamondback moth, deltamethrin 0.29 mg/L, O43NEW filtrate 1%, alone or combined, 7 DAT): 21%
mortality at 0.29 µg/mL (diamondback moth [4]; 216 h, read-out: % Mortality (9DAT), 2nd instar diamondback moth, deltamethrin 0.29 mg/L, O43NEW filtrate 1%, alone or combined, 9 DAT): 25%

CN1COCN(Cc2cnc(Cl)s2)/C1=N\[N+](=O)[O-] [Thiamethoxam]
LT50 (95% confidence intervals) in days (cabbage looper [2]; 3rd instar cabbage looper, thiamethoxam 150 mg/L, O43NEW undiluted filtrate, alone or combined): 6.97 (5.92-8.22) days
LT50 Chem. (cabbage looper [2]; thiamethoxam 150 mg/L): 6.97 days
% Mort. Chem. (cabbage looper [2]; thiamethoxam 150 mg/L, DAT column prints 62): 1.1%
mortality at 150 µg/mL (diamondback moth [3]; [8]): 11%
mortality at 150 µg/mL (diamondback moth [3]; [9]): 16%
% Mort. Chem. (diamondback moth [3]; Thiamethoxam 150 mg/L, 6 DAT): 16%
LT50 Chem. (diamondback moth [3]; Thiamethoxam alone 150 mg/L): 10.09 days
